Source: US20090042726A1, “Novel Herbicides” (SYNGENTA LIMITED, priority 2005, published 2009)

Test system: Monocotyledonous and dicotyledonous test plants
Test: Herbicidal action, application pre-emergence (Example B1)
Type: in vivo
Parameters: key: 10=total damage to plant; 0=no damage to plant
Details: 1000 g/ha, evaluated after 9 or 13 days; for AGSTE herbicidal action (damage score 0-10): Agrostis-tenius; for AMARE herbicidal action (damage score 0-10): Amaranthus retroflexus; for DIGSA herbicidal action (damage score 0-10): Digitaria sanguinalis; for POATR herbicidal action (damage score 0-10): Poa trivialis; for SETIT herbicidal action (damage score 0-10): Setaria italica
Procedure: Monocotyledonous and dicotyledonous test plants were sown in sterilised standard soil in seed trays each having 96 cells. After one day (pre-emergence) under controlled conditions in a climatic chamber (cultivation at 23/17° C., day/night; 13 hours light; 50-60% humidity; after application at 24/19° C., day/night), the plants were treated with an aqueous spray solution of 1000 mg/l of the active ingredient used (including 10% DMSO as solvent). The plants were grown on in the climatic chamber until the test was evaluated (10=total damage to plant, 0=no damage to plant) after 9 or 13 days.

| SMILES | AGSTE herbicidal action (damage score 0-10) | AMARE herbicidal action (damage score 0-10) | DIGSA herbicidal action (damage score 0-10) | POATR herbicidal action (damage score 0-10) | SETIT herbicidal action (damage score 0-10) |
| --- | --- | --- | --- | --- | --- |
| Cn1nc(C(F)(F)F)c(C[S+]([O-])C2=NOC(C)(C)C2F)c1OC(F)F (single isomer, unassigned) [2.25] | 10 | 10 | 10 | 10 | 10 |
| Cn1nc(OC(F)F)c(C[S+]([O-])C2=NOC(C)(C)C2F)c1C(F)(F)F (single isomer, unassigned) [2.29] | 9 | 8 | 0 | 10 | 9 |
| Cn1nc(OC(F)F)c(C[S+]([O-])C2=NOC(C)(C)C2F)c1C(F)(F)F (single isomer, unassigned) [2.30] | 10 | 9 | 10 | 9 | 9 |
| Cn1nc(OCC(F)(F)F)c(C[S+]([O-])C2=NOC(C)(C)C2F)c1C(F)(F)F (single isomer, unassigned) [2.42] | 0 | 8 | 8 | 8 | 8 |
| Cn1nc(OCC(F)(F)F)c(C[S+]([O-])C2=NOC(C)(C)C2F)c1C(F)(F)F (single isomer, unassigned) [2.43] | 0 | 8 | 9 | 10 | 8 |
| Cc1nn(C)c(OCC(F)(F)F)c1C[S+]([O-])C1=NOC(C)(C)C1F (single isomer, unassigned) [2.61] | 10 | 6 | 9 | 4 |  |
| Cn1nc(C[S+]([O-])C2=NOC(C)(C)C2F)c(C(F)(F)F)c1C#N (single isomer, unassigned) [4.07] | 10 | 9 | 9 | 10 |  |
| Cn1nc(C[S+]([O-])C2=NOC(C)(C)C2F)c(C(F)(F)F)c1C#N (single isomer, unassigned) [4.08] | 10 | 5 | 9 | 8 |  |
| Cc1nn(C)nc1C[S+]([O-])C1=NOC(C)(C)C1F (single isomer, unassigned) [7.02] | 10 | 0 | 9 | 10 | 9 |
| Cc1nn(C)nc1C[S+]([O-])C1=NOC(C)(C)C1F (single isomer, unassigned) [7.03] | 8 | 6 | 10 | 10 | 9 |
| C=CCn1nc(C[S+]([O-])C2=NOC(C)(C)C2F)c(C(F)(F)F)n1 (single isomer, unassigned) [7.08] | 10 | 10 | 10 | 10 |  |
| C=CCn1nc(C[S+]([O-])C2=NOC(C)(C)C2F)c(C(F)(F)F)n1 (single isomer, unassigned) [7.09] | 10 | 10 | 10 | 10 |  |
| CC1(C)ON=C([S+]([O-])Cc2nn(C3CCCC3)nc2C(F)(F)F)C1F (single isomer, unassigned) [7.12] | 10 | 10 | 9 | 10 |  |
| CC(C)n1nc(C[S+]([O-])C2=NOC(C)(C)C2F)c(C(F)(F)F)n1 (single isomer, unassigned) [7.25] | 10 | 9 | 9 | 10 |  |
| CC(C)n1nc(C[S+]([O-])C2=NOC(C)(C)C2F)c(C(F)(F)F)n1 (single isomer, unassigned) [7.26] | 9 | 0 | 5 | 6 |  |
| Cc1nc(C[S+]([O-])C2=NOC(C)(C)C2F)n(C)n1 (single isomer, unassigned) [8.02] | 10 | 4 | 10 | 10 |  |
| Cc1nc(C[S+]([O-])C2=NOC(C)(C)C2F)n(C)n1 (single isomer, unassigned) [8.03] | 10 | 0 | 9 | 8 |  |

| SMILES | AGSTE herbicidal action (damage score 0-10) | AMARE herbicidal action (damage score 0-10) | DIGSA herbicidal action (damage score 0-10) | POATR herbicidal action (damage score 0-10) | SETIT herbicidal action (damage score 0-10) |
| --- | --- | --- | --- | --- | --- |
| CC1(C)ON=C(S(=O)(=O)Cc2ccccc2OC(F)(F)F)C1F (stereo not shown) [1.11] | 10 | 7 | 10 | 10 | 8 |
| CC1(C)ON=C(S(=O)(=O)Cc2c(F)cccc2F)C1F (stereo not shown) [1.17] | 10 | 10 | 8 | 10 | 8 |
| Cn1nc(C(F)(F)F)c(CS(=O)(=O)C2=NOC(C)(C)C2F)c1OCC(F)(F)F (stereo not shown) [2.11] | 10 | 10 | 9 | 10 | 4 |
| Cn1nc(C(F)(F)F)c(CS(=O)(=O)C2=NOC(C)(C)C2Cl)c1OC(F)F (stereo not shown) [2.18] | 10 | 8 | 5 | 9 | 8 |
| Cn1nc(C(F)(F)F)c(C[S+]([O-])C2=NOC(C)(C)C2(Cl)Cl)c1OCC(F)(F)F (stereo not shown) [2.20] | 5 | 4 | 9 | 8 | 7 |
| Cn1nc(OC(F)F)c(CS(=O)(=O)C2=NOC(C)(C)C2F)c1C(F)(F)F (stereo not shown) [2.31] | 10 | 10 | 10 | 10 | 10 |
| Cn1cc(CS(=O)(=O)C2=NOC(C)(C)C2F)c(C(F)(F)F)n1 (stereo not shown) [2.34] | 10 | 10 | 10 | 10 | 9 |
| Cn1nc(OCC(F)(F)F)c(CS(=O)(=O)C2=NOC(C)(C)C2F)c1C(F)(F)F (stereo not shown) [2.44] | 0 | 10 | 7 | 10 | 10 |
| CCn1cc(CS(=O)(=O)C2=NOC(C)(C)C2F)c(C(F)(F)F)n1 (stereo not shown) [2.47] | 10 | 10 | 9 | 10 |  |
| C#CCn1cc(CS(=O)(=O)C2=NOC(C)(C)C2F)c(C(F)(F)F)n1 (stereo not shown) [2.50] | 10 | 10 | 10 | 10 |  |
| C=CCn1cc(CS(=O)(=O)C2=NOC(C)(C)C2F)c(C(F)(F)F)n1 (stereo not shown) [2.53] | 10 | 10 | 9 | 10 |  |
| Cn1nc(C(F)(F)F)c(CS(=O)(=O)C2=NOC(C)(C)C2F)c1F (stereo not shown) [2.56] | 10 | 10 | 10 | 10 |  |
| COCCOc1c(CS(=O)(=O)C2=NOC(C)(C)C2F)c(C(F)(F)F)nn1C (stereo not shown) [2.59] | 10 | 10 | 10 | 10 |  |
| Cc1nn(C)c(OCC(F)(F)F)c1CS(=O)(=O)C1=NOC(C)(C)C1F (stereo not shown) [2.63] | 10 | 10 | 8 | 10 |  |
| Cc1nc(C(F)(F)F)ccc1CS(=O)(=O)C1=NOC(C)(C)C1F (stereo not shown) [3.03] | 10 | 10 | 0 | 10 | 9 |
| CC1(C)ON=C(S(=O)(=O)Cc2cccnc2Cl)C1F (stereo not shown) [3.06] | 10 | 8 | 0 | 10 |  |
